Experimental data from PubChem BioAssay (NCI).
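Following 48 hours of exposure in 96-well plates, responses at five concentrations were used to interpolate endpoints linearly. TGI: total growth inhibition.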

Key:
Test in all cases: DTP human tumour cell line panel, 48 h
[1] = test system: A498 renal
[2] = test system: SK-OV-3 ovarian
[3] = test system: UACC-257 melanoma
[4] = test system: A549 NSCLC
[5] = test system: DU-145 prostate
[6] = test system: U251 CNS
[7] = test system: CCRF-CEM leukemia
[8] = test system: UACC-62 melanoma
[9] = test system: MCF7 breast
[10] = test system: SW-620 colon
[11] = test system: SF-539 CNS
[12] = test system: MDA-N
[13] = test system: OVCAR-4 ovarian
[14] = test system: TK-10 renal
[15] = test system: NCI-H23 lung
[16] = test system: K-562 leukemia
[17] = test system: SK-MEL-2 melanoma
[18] = test system: HCT-15 colon
[19] = test system: HOP-92 NSCLC
[20] = test system: IGROV1 ovarian

Row | Compound | TGI [1] [µM] | TGI [2] [µM] | TGI [3] [µM] | TGI [4] [µM] | TGI [5] [µM] | TGI [6] [µM] | TGI [7] [µM] | TGI [8] [µM] | TGI [9] [µM] | TGI [10] [µM] | TGI [11] [µM] | TGI [12] [µM] | TGI [13] [µM] | TGI [14] [µM] | TGI [15] [µM] | TGI [16] [µM] | TGI [17] [µM] | TGI [18] [µM] | TGI [19] [µM] | TGI [20] [µM]
1 | C=CC(Br)(CBr)CCC(Br)C(C)(C)Cl (stereo not given) | 9.46 | 30.1 | 10.6 | 28.6 | 9.92 | 2.92 | 7.45 | 17.3 | 4.89 | 5.67 | 3.78 | 8.34 | 10.4 | 6.33 | 12.9 | 5.1 | 29.5 | 6.53 | 4.32 | 12.8
2 | COC(=O)[C@]1(c2cc3ccccc3[nH]2)CC2CN(CC(=O)N(C)OC)C1CC2(OC)OC (stereo not given in full) | > 100 | > 100 | > 100 | > 100 | > 100 | 30.7 | 32 | > 100 | > 100 | > 100 | > 100 | > 100 | > 100 | > 100 | > 100 | 66.4 | > 100 | > 100 | > 100 | > 100
3 | CC(C)(C)c1cc(OCc2nnc3sc(=S)[nH]n23)c(Cl)cc1OCc1nnc2sc(=S)[nH]n12 | 88.7 | > 100 | 83.8 | > 100 | 94 | 65.2 | 37.3 | 32.6 | 31.6 | > 100 | > 100 | 40.6 | 80.6 | 99.8 | 95.5 | > 100 | 58.9 | > 100 | 53.3 | 66.4
4 | [O-][N+]1=NC(c2ccccc2)=C1c1ccccc1 | > 50 | > 50 | > 50 | > 50 | > 50 | > 50 | > 50 | > 50 | > 50 | > 50 | > 50 | > 50 | > 50 | > 50 | > 50 | > 50 | > 50 | > 50 | > 50 | > 50
5 | CC1Cc2cc(O)c(O)cc2-c2cc(O)c(O)cc2CC1C (stereo not given) | 56.8 | > 100 | 29.1 | 71.1 | > 100 | 32.6 | > 100 | 19.3 | 37.1 | 42.5 | 19.6 | 11.7 | 33.9 | 86.4 | 38.6 | 39.5 | 15 | 36.1 | 46.7 | 47
6 | CC(C)(C)OC(=O)C1=C2C=C(O)C=CC2(C)N(Cc2ccccc2)C1=N (stereo not given) | 26.2 | 42.1 | 18.7 | 28.1 | 12.8 | 43.3 | > 38.2 | 29 | 9.99 | 5.69 | 12.7 | 20.2 | 19.1 | 10.2 | 31.2 | > 32.9 | 33.1 | 14.9 | 5.91 | 16.6
7 | CCN(CC)/[N+]([O-])=N/OCOC(C)=O | > 100 | > 100 | > 100 | > 100 | > 100 | > 100 | > 100 | > 100 | > 100 | > 100 | > 100 | > 100 | > 100 | > 100 | > 100 | > 100 | > 100 | > 100 | > 100 | > 100
8 | O=C(O)C1(Cc2ccc3c(c2)CCC3)Cc2ccccc2C1 | > 100 | > 100 | > 100 | > 100 | > 100 | > 100 | > 100 | > 100 | > 100 | > 100 | > 100 | > 100 | > 100 | > 100 | > 100 | > 100 | > 100 | > 100 | > 100 | > 100
9 | COc1ccc2c(c1)CCCN2S(=O)(=O)c1ccccc1[N+](=O)[O-] | > 78 | > 77 | > 100 | > 100 | > 100 | > 92 | 80.9 | > 97.5 | 99.3 | > 100 | 68.8 | 26.7 | > 100 | 97.1 | > 100 | > 68.9 | 72.4 | > 97.4 | 97.8 | > 100
10 | CCCCCCOc1ccc(C(=O)N(C)O)cc1 | > 100 | > 97.1 | > 100 | 56.6 | 66 | > 100 | 23.5 | 60.9 | > 100 | > 100 | 44.6 | > 100 | > 100 | > 100 | 65.6 | > 78.8 | > 100 | > 82.9 | > 100 | > 100
